In patent US8952157B2, “Apoptosis-inducing agents for the treatment of cancer and immune and autoimmune diseases” (AbbVie Inc., priority 2008, dated 2015):

Molecular target: GST-Bcl-2 (Homo sapiens (Human), UniProt P10415)
Assay: Time Resolved-Fluorescence Resonance Energy Transfer (TR-FRET) Bcl-2 binding assay
Details: GST-Bcl-2 1 nM, F-Bak peptide probe 100 nM, Tb-anti-GST antibody 1 nM; Ki by Wang's equation
In short: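 Competition TR-FRET: GST-Bcl-2 with fluorescent Bak peptide probe and Tb-anti-GST antibody, compounds serially diluted from 50 μM (2× start, 10% DMSO).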

GST-Bcl-2, sequence (P10415 whole entry): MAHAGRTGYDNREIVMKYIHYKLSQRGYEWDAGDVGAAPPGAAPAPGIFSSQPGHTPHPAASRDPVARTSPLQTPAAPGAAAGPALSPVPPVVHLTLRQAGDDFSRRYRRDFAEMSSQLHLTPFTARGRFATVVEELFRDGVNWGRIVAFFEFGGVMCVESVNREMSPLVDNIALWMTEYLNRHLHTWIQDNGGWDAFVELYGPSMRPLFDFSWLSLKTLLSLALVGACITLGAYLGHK

CC1(C)CCC(CN2CCN(c3ccc(C(=O)NS(=O)(=O)c4ccc(NCCN5CCOCC5)c([N+](=O)[O-])c4)c(Oc4cccc(Cl)c4)c3)CC2)=C(c2ccc(Cl)cc2)C1 [Example 141, 2-(3-chlorophenoxy)-4-(4-{[2-(4-chlorophenyl)-4,4-dimethylcyclohex-1-en-1-yl]methyl}piperazin-1-yl)-N-({4-[(2-morpholin-4-ylethyl)amino]-3-nitrophenyl}sulfonyl)benzamide]
Ki: 482 pM

CN(C)CCCNc1ccc(S(=O)(=O)NC(=O)c2ccc(N3CCN(CC4=C(c5ccc(Cl)cc5)CC(C)(C)CC4)CC3)cc2Oc2cccc(Cl)c2)cc1[N+](=O)[O-] [Example 142, 2-(3-chlorophenoxy)-4-(4-{[2-(4-chlorophenyl)-4,4-dimethylcyclohex-1-en-1-yl]methyl}piperazin-1-yl)-N-[(4-{[3-(dimethylamino)propyl]amino}-3-nitrophenyl)sulfonyl]benzamide]
Ki: 71 pM

CN1CCN(CCCNc2ccc(S(=O)(=O)NC(=O)c3ccc(N4CCN(CC5=C(c6ccc(Cl)cc6)CC(C)(C)CC5)CC4)cc3Oc3cccc(Cl)c3)cc2[N+](=O)[O-])CC1 [Example 143, 2-(3-chlorophenoxy)-4-(4-{[2-(4-chlorophenyl)-4,4-dimethylcyclohex-1-en-1-yl]methyl}piperazin-1-yl)-N-[(4-{[3-(4-methylpiperazin-1-yl)propyl]amino}-3-nitrophenyl)sulfonyl]benzamide]
Ki: 53 pM

CN1CCC(Nc2ccc(S(=O)(=O)NC(=O)c3ccc(N4CCN(CC5=C(c6ccc(Cl)cc6)CC(C)(C)OC5)CC4)cc3Oc3cccc(Cl)c3)cc2[N+](=O)[O-])CC1 [Example 144, 2-(3-chlorophenoxy)-4-(4-{[4-(4-chlorophenyl)-6,6-dimethyl-5,6-dihydro-2H-pyran-3-yl]methyl}piperazin-1-yl)-N-({4-[(1-methylpiperidin-4-yl)amino]-3-nitrophenyl}sulfonyl)benzamide]
Ki: 28 pM

CN1CCC(Nc2ccc(S(=O)(=O)NC(=O)c3ccc(N4CCN(CC5=C(c6ccc(Cl)cc6)CC(C)(C)OC5)CC4)cc3Oc3cccc(F)c3F)cc2[N+](=O)[O-])CC1 [Example 145, 4-(4-{[4-(4-chlorophenyl)-6,6-dimethyl-5,6-dihydro-2H-pyran-3-yl]methyl}piperazin-1-yl)-2-(2,3-difluorophenoxy)-N-({4-[(1-methylpiperidin-4-yl)amino]-3-nitrophenyl}sulfonyl)benzamide]
Ki: 57 pM

C=CCN1CCC(Nc2ccc(S(=O)(=O)NC(=O)c3ccc(N4CCN(CC5=C(c6ccc(Cl)cc6)CC(C)(C)CC5)CC4)cc3Oc3cccc(F)c3F)cc2[N+](=O)[O-])CC1 [Example 146, N-({4-[(1-allylpiperidin-4-yl)amino]-3-nitrophenyl}sulfonyl)-4-(4-{[2-(4-chlorophenyl)-4,4-dimethylcyclohex-1-en-1-yl]methyl}piperazin-1-yl)-2-(2,3-difluorophenoxy)benzamide]
Ki: 40 pM

CN1CCC(Nc2ccc(S(=O)(=O)NC(=O)c3ccc(N4CCN(CC5=C(c6ccc(Cl)cc6)CC(C)(C)CC5)CC4)cc3Oc3cccc(Cl)c3F)cc2[N+](=O)[O-])CC1 [Example 147, 2-(3-chloro-2-fluorophenoxy)-4-(4-{[2-(4-chlorophenyl)-4,4-dimethylcyclohex-1-en-1-yl]methyl}piperazin-1-yl)-N-({4-[(1-methylpiperidin-4-yl)amino]-3-nitrophenyl}sulfonyl)benzamide]
Ki: 127 pM

CC1(C)CCC(CN2CCN(c3ccc(C(=O)NS(=O)(=O)c4ccc(NCCCN5CCOCC5)c([N+](=O)[O-])c4)c(Oc4cccc(Cl)c4F)c3)CC2)=C(c2ccc(Cl)cc2)C1 [Example 148, 2-(3-chloro-2-fluorophenoxy)-4-(4-{[2-(4-chlorophenyl)-4,4-dimethylcyclohex-1-en-1-yl]methyl}piperazin-1-yl)-N-({4-[(3-morpholin-4-ylpropyl)amino]-3-nitrophenyl}sulfonyl)benzamide]
Ki: 106 pM

CC1(C)CCC(CN2CCN(c3ccc(C(=O)NS(=O)(=O)c4ccc(NCCN5CCOCC5)c([N+](=O)[O-])c4)c(Oc4cccc(Cl)c4F)c3)CC2)=C(c2ccc(Cl)cc2)C1 [Example 150, 2-(3-chloro-2-fluorophenoxy)-4-(4-{[2-(4-chlorophenyl)-4,4-dimethylcyclohex-1-en-1-yl]methyl}piperazin-1-yl)-N-({4-[(2-morpholin-4-ylethyl)amino]-3-nitrophenyl}sulfonyl)benzamide]
Ki: 759 pM

CN1CCC(Nc2ccc(S(=O)(=O)NC(=O)c3ccc(N4CCN(CC5=C(c6ccc(Cl)cc6)CC(C)(C)CC5)CC4)cc3Oc3c(F)cccc3Cl)cc2[N+](=O)[O-])CC1 [Example 151, 2-(2-chloro-6-fluorophenoxy)-4-(4-{[2-(4-chlorophenyl)-4,4-dimethylcyclohex-1-en-1-yl]methyl}piperazin-1-yl)-N-({4-[(1-methylpiperidin-4-yl)amino]-3-nitrophenyl}sulfonyl)benzamide]
Ki: 6940 pM

CN1CCC(Nc2ccc(S(=O)(=O)NC(=O)c3ccc(N4CCN(CC5=C(c6ccc(Cl)cc6)CC(C)(C)CC5)CC4)cc3Oc3cc4cc[nH]c4cc3F)cc2[N+](=O)[O-])CC1 [Example 154, 4-(4-{[2-(4-chlorophenyl)-4,4-dimethylcyclohex-1-en-1-yl]methyl}piperazin-1-yl)-2-[(6-fluoro-1H-indol-5-yl)oxy]-N-({4-[(1-methylpiperidin-4-yl)amino]-3-nitrophenyl}sulfonyl)benzamide]
Ki: 12 pM

CN1CCC(CNc2ccc(S(=O)(=O)NC(=O)c3ccc(N4CCN(CC5=C(c6ccc(Cl)cc6)CC(C)(C)CC5)CC4)cc3Oc3cccc(Cl)c3)cc2[N+](=O)[O-])CC1 [Example 155, 2-(3-chlorophenoxy)-4-(4-{[2-(4-chlorophenyl)-4,4-dimethylcyclohex-1-en-1-yl]methyl}piperazin-1-yl)-N-[(4-{[(1-methylpiperidin-4-yl)methyl]amino}-3-nitrophenyl)sulfonyl]benzamide]
Ki: 62 pM

CN1CCC(Nc2ccc(S(=O)(=O)NC(=O)c3ccc(N4CCN(CC5=C(c6ccc(Cl)cc6)CC(C)(C)CC5)CC4)cc3Oc3ccc4[nH]ccc4c3F)cc2[N+](=O)[O-])CC1 [Example 157, 4-(4-{[2-(4-chlorophenyl)-4,4-dimethylcyclohex-1-en-1-yl]methyl}piperazin-1-yl)-2-[(4-fluoro-1H-indol-5-yl)oxy]-N-({4-[(1-methylpiperidin-4-yl)amino]-3-nitrophenyl}sulfonyl)benzamide]
Ki: 720 pM

COCOc1cccc(Oc2cc(N3CCN(CC4=C(c5ccc(Cl)cc5)CC(C)(C)CC4)CC3)ccc2C(=O)NS(=O)(=O)c2ccc(NC3CCN(C)CC3)c([N+](=O)[O-])c2)c1C [Example 158, 4-(4-{[2-(4-chlorophenyl)-4,4-dimethylcyclohex-1-en-1-yl]methyl}piperazin-1-yl)-2-[3-(methoxymethoxy)-2-methylphenoxy]-N-({4-[(1-methylpiperidin-4-yl)amino]-3-nitrophenyl}sulfonyl)benzamide]
Ki: 619 pM

Cc1c(O)cccc1Oc1cc(N2CCN(CC3=C(c4ccc(Cl)cc4)CC(C)(C)CC3)CC2)ccc1C(=O)NS(=O)(=O)c1ccc(NC2CCN(C)CC2)c([N+](=O)[O-])c1 [Example 159]
Ki: 526 pM

CN1CCC(Nc2ccc(S(=O)(=O)NC(=O)c3ccc(N4CCN(CC5=C(c6ccc(Cl)cc6)CC(C)(C)OC5)CC4)cc3Oc3cccc(Br)c3)cc2[N+](=O)[O-])CC1 [Example 160, 2-(3-bromophenoxy)-4-(4-{[4-(4-chlorophenyl)-6,6-dimethyl-5,6-dihydro-2H-pyran-3-yl]methyl}piperazin-1-yl)-N-({4-[(1-methylpiperidin-4-yl)amino]-3-nitrophenyl}sulfonyl)benzamide]
Ki: 28 pM

CN1CCC(Nc2ccc(S(=O)(=O)NC(=O)c3ccc(N4CCN(CC5=C(c6ccc(Cl)cc6)CC(C)(C)OC5)CC4)cc3Oc3cccc(I)c3)cc2[N+](=O)[O-])CC1 [Example 161, 4-(4-{[4-(4-chlorophenyl)-6,6-dimethyl-5,6-dihydro-2H-pyran-3-yl]methyl}piperazin-1-yl)-2-(3-iodophenoxy)-N-({4-[(1-methylpiperidin-4-yl)amino]-3-nitrophenyl}sulfonyl)benzamide]
Ki: 31 pM

CC1(C)CCC(CN2CCN(c3ccc(C(=O)NS(=O)(=O)c4ccc(NC5CCN(CCO)CC5)c([N+](=O)[O-])c4)c(Oc4cccc(Cl)c4)c3)CC2)=C(c2ccc(Cl)cc2)C1 [Example 162, 2-(3-chlorophenoxy)-4-(4-{[2-(4-chlorophenyl)-4,4-dimethylcyclohex-1-en-1-yl]methyl}piperazin-1-yl)-N-[(4-{[1-(2-hydroxyethyl)piperidin-4-yl]amino}-3-nitrophenyl)sulfonyl]benzamide]
Ki: 48 pM

CC1(C)CCC(CN2CCN(c3ccc(C(=O)NS(=O)(=O)c4ccc(NC5CCN(CCc6ccccc6)CC5)c([N+](=O)[O-])c4)c(Oc4cccc(Cl)c4)c3)CC2)=C(c2ccc(Cl)cc2)C1 [Example 163, 2-(3-chlorophenoxy)-4-(4-{[2-(4-chlorophenyl)-4,4-dimethylcyclohex-1-en-1-yl]methyl}piperazin-1-yl)-N-[(3-nitro-4-{[1-(2-phenylethyl)piperidin-4-yl]amino}phenyl)sulfonyl]benzamide]
Ki: 686 pM

CN1CCC(Nc2ccc(S(=O)(=O)NC(=O)c3ccc(N4CCN(CC5=C(c6ccc(Cl)cc6)CC(C)(C)CC5)CC4)cc3Oc3ccc(Cl)c(Cl)c3)cc2[N+](=O)[O-])CC1 [Example 164, 4-(4-{[2-(4-chlorophenyl)-4,4-dimethylcyclohex-1-en-1-yl]methyl}piperazin-1-yl)-2-(3,4-dichlorophenoxy)-N-({4-[(1-methylpiperidin-4-yl)amino]-3-nitrophenyl}sulfonyl)benzamide]
Ki: 56 pM

CN1CCC(Nc2ccc(S(=O)(=O)NC(=O)c3ccc(N4CCN(CC5=C(c6ccc(Cl)cc6)CC(C)(C)CC5)CC4)cc3Oc3cc(F)cc(F)c3Cl)cc2[N+](=O)[O-])CC1 [Example 165, 2-(2-chloro-3,5-difluorophenoxy)-4-(4-{[2-(4-chlorophenyl)-4,4-dimethylcyclohex-1-en-1-yl]methyl}piperazin-1-yl)-N-({4-[(1-methylpiperidin-4-yl)amino]-3-nitrophenyl}sulfonyl)benzamide]
Ki: 120 pM
